# Results from patent publication US20070141707A1, “Sponge toxins” (priority 2003, published 2007).
# How the values were obtained:
# [1] = test system: cultured DRG neurones; assay: Whole-cell recording of membrane potential and input resistance in cultured DRG neurones; type: cell-based, rat; conditions: 1.5 mM zinc, before poly-APS, n=7
# Protocol: (§1) Primary cultures of dorsal root ganglion (DRG) neurones were prepared following enzymatic and mechanical dissociation of dorsal root ganglia from decapitated 2-day old Sprague Dawley rats. The sensory neurones were plated on laminin-polyornithine coated coverslips and bathed in F14 culture medium (Imperial Laboratories) supplemented with 10% horse serum (Gibco), penicillin (5000 IU/ml), streptomycin ([…]), NaHCO3 (14 mM) and nerve growth factor (20 ng/ml). The cultures were maintained for up to 2 weeks at 37° C. in humidified air with 5% CO2, and re-fed with fresh culture medium every 5-7 days.
# (§2) All experiments were conducted at room temperature (approximately 23° C.). The whole-cell recording technique was used to study the actions of poly-APS and halitoxin preparations on membrane potential, input resistance (evaluated from 100-300 ms electrotonic potentials evoked by −30 to −200 pA current commands) and holding current. […] Poly-APS and halitoxin were applied to the extracellular environment by low pressure ejection via a blunt micropipette (tip diameter about […]) positioned approximately […] from the neurone being recorded. […]
# The electrophysiological data were stored on digital audio tape (DAT) using a DTR-1200 DAT recorder (Biologic) and subsequently analysed using Cambridge Electronic Design voltage clamp software (version 6). […]
# [2] = test system: cultured DRG neurones; assay: Voltage clamp recording of poly-APS evoked inward/holding current in DRG neurones; type: cell-based, rat; conditions: 1.5 mM zinc continually present, before poly-APS, n=6
# Protocol: as §1
# as §2, with “current. Whole cell recordings were made using an Axoclamp-2A switching voltage clamp amplifier operated at a sampling rate of 15-20 kHz.” for “current.”
# [3] = test system: HEK293 cells; assay: fura-2 intracellular Ca2+ imaging in HEK293 cells; type: cell-based, human; conditions: poly-APS 0.5 μg/ml, n=11
# Protocol: HEK293 cells (human embryonic kidney cell line) were maintained in Dulbecco's modified Eagle's medium (DMEM). In preparation for transfection experiments cells were seeded 24 hours prior to experimentation at a density of 5×10^5 cells per well in six well plates, the same seeding density was used for confocal and electrophysiology/calcium imaging experiments in 35 mm culture dishes.
# Cultured DRG neurones and HEK 293 cells were incubated for 1 hour in NaCl-based extracellular solution containing 10 μM fura-2AM (Sigma, 1 mM stock in dimethylformamide). The cells were then washed for 20 minutes to remove the extracellular fura-2AM and to allow cytoplasmic de-esterification of the Ca^2+ sensitive fluorescent dye. The cells were constantly perfused (1-2 ml/min) and viewed under an inverted Olympus BX50W1 microscope with a KAI-1001 S/N 5B7890-4201 Olympus camera attached. The fluorescence ratiometric images from the data obtained at excitation wavelengths of 340 nm and 380 nm were viewed and analysed using OraCal pro, Merlin morphometry temporal mode (Life Sciences resources, version 1.20).
# [4] = read-out: KD for zinc; cited from earlier work
Compound,resting membrane potential in the presence of zinc [1] [mV],resting holding current at −90 mV with zinc [2] [pA],effect of zinc on rise in intracellular Ca2+ produced by poly-APS [3],Kd [4] [nM]
[Zn+2] [zinc],−47±7,−120±30,attenuated,–
Cc1ccc(N(CC(=O)O)CC(=O)O)c(OCCOc2cc3cc(-c4ncc(C(=O)O)o4)oc3cc2N(CC(=O)O)CC(=O)O)c1 [fura-2],–,–,–,~2
